Reference: ChEMBL document CHEMBL1142020, “2-substituted-4-aryl-6,7,8,9-tetrahydro-5H-pyrimido[4,5-b][1,5]oxazocin-5-one as a structurally new NK1 antagonist” (2005)

Key:
[1] = Effective bladder capacity increasing effect of compound (0.3 mg/kg i.v.) expressed as the ratio of increase in effective bladder capacity compared to saline treated animals in vivo; assay type: functional, Cavia porcellus
[2] = target: Substance-P receptor (Cavia porcellus) (UniProt P30547); assay: Antagonist activity against tachykinin receptor 1 activity in guinea pig ileum in vitro; assay type: functional, tissue-based
Substance-P receptor (Cavia porcellus), sequence (P30547 whole entry): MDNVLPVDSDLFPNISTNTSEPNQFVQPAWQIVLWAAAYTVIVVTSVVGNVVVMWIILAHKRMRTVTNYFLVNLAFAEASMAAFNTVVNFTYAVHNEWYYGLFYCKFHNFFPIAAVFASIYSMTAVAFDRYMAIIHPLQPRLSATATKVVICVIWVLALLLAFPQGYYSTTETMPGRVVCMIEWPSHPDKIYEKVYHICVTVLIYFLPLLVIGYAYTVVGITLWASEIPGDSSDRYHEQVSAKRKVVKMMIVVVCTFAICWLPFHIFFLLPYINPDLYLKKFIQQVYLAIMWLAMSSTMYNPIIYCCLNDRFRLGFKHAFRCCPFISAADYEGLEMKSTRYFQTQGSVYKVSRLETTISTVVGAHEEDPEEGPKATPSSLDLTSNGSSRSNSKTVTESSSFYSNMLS

Row | Kb [2] [nM] | SMILES | Effect [1] [%]
1 | 0.339 | Cc1ccccc1-c1nc(N2CCC(N3CCCC3)CC2)cc2c1C(=O)N(Cc1cc(C(F)(F)F)cc(C(F)(F)F)c1)CCCO2 | 3.97
2 |  | Cc1ccccc1-c1cc(N2CCC(N3CCCC3)CC2)nc2c1C(=O)N(Cc1cc(C(F)(F)F)cc(C(F)(F)F)c1)CCCO2 | 24.2
3 | 0.27 | Cc1ccc(-c2c3n(c(=O)c4ncccc24)CC[C@@H](C)CN(Cc2cc(C(F)(F)F)cc(C(F)(F)F)c2)C3=O)cc1 | 12
4 | 0.166 | Cc1ccccc1-c1nc(N2CCC(N3CCCC3)CC2)nc2c1C(=O)N(Cc1cc(C(F)(F)F)cc(C(F)(F)F)c1)CCCO2 | 33.4
